Article PMC3966878, “Crystal Structure of ORF210 from E. coli O157:H1 Phage CBA120 (TSP1), a Putative Tailspike Protein” (PLoS ONE, 2014)

Columns and labels:
[1] = target: T1, TSP1 (ORF210) from CBA120 phage (Escherichia phage Cba120, UniProt G3M189); test: X-ray crystal structure (soak), […] Å; assay type: binding; conditions: crystal soak in mother liquor with 37% saturated sugar, Tris-HCl pH 7.0-7.6
T1 construct: full length, 770 residues plus C-terminal 6xHis tag; codon-optimized gene expressed in E. coli BL21; homotrimer, 82 kDa monomer; one Zn2+ per trimer
T1 sequence (G3M189 1-770): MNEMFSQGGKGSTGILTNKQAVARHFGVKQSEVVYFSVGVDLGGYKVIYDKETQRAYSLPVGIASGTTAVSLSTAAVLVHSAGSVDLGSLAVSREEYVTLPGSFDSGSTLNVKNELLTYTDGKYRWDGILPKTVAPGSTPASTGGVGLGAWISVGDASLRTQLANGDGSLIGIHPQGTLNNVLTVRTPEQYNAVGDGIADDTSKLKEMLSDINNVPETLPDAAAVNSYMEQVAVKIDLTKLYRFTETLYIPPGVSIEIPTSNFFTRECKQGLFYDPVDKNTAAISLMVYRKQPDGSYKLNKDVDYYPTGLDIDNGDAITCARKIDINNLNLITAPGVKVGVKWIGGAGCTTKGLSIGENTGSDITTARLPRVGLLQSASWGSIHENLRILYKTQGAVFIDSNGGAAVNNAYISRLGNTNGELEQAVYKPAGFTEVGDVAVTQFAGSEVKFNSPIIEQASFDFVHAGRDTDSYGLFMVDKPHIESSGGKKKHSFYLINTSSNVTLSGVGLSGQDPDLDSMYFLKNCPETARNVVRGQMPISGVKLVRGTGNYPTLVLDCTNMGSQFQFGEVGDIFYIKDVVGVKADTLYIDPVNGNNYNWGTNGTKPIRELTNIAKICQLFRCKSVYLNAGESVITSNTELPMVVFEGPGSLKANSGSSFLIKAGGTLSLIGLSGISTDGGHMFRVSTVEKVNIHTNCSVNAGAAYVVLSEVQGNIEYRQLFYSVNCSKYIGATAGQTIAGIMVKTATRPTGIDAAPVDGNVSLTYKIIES

[2] = target: T1, TSP1 (ORF210) from CBA120 phage; test: X-ray crystal structure (soak), […] Å; assay type: binding; conditions: crystal soak in mother liquor with 37% saturated sugar, Tris-HCl pH 7.0-7.6; site on the surface of D3, single subunit (Tyr306, Tyr427, Phe443, Ala430)
[3] = target: the molecule itself; test: SEC; analytical gel filtration, Superose 6, 100 ug TSP1, isocratic in PBS; mass from a standard curve of gel filtration standards
[4] = target: the molecule itself; test: crystal structure; hanging drop, 0.1 M Tris-HCl pH 7.0-7.6, 16% PEG 1000, room temperature; space group P212121; MAD phasing on Se-Met crystal; 1.8 A

## OC[C@H]1O[C@@H](O)[C@H](O)[C@@H](O)[C@@H]1O [glucose]
[1]; site in D3-D4 hole next to D4, single subunit (Glu639, Lys662, Lys615)
  X-ray crystal structure (soak), 2.0 Å: 4OJL for TSP1/glucose complex

## OC[C@H]1O[C@@H](O[C@H]2[C@H](O)[C@@H](O)[C@@H](O)O[C@@H]2CO)[C@H](O)[C@@H](O)[C@H]1O [α-lactose]
[1]; site deep in D3-D4 hole between two subunits (Val579, Lys577, Asp585)
  X-ray crystal structure (soak), 2.0 Å: 4OJO for TSP1/lactose complex

## OC[C@H]1O[C@H](O[C@H]2[C@H](O)[C@@H](O)[C@@H](O)O[C@@H]2CO)[C@H](O)[C@@H](O)[C@@H]1O [α-maltose]
[2]
  X-ray crystal structure (soak), 1.95 Å: 4OJP for TSP1/maltose complex

B1: TSP1 (tailspike protein 1, ORF210) from bacteriophage CBA120, wild-type, with C-terminal 6X-His tag (natural protein, bacteriophage CBA120 (vB_EcoM_CBA120), UniProt G3M189 1-770, looked up)
chain: MNEMFSQGGKGSTGILTNKQAVARHFGVKQSEVVYFSVGVDLGGYKVIYDKETQRAYSLPVGIASGTTAVSLSTAAVLVHSAGSVDLGSLAVSREEYVTLPGSFDSGSTLNVKNELLTYTDGKYRWDGILPKTVAPGSTPASTGGVGLGAWISVGDASLRTQLANGDGSLIGIHPQGTLNNVLTVRTPEQYNAVGDGIADDTSKLKEMLSDINNVPETLPDAAAVNSYMEQVAVKIDLTKLYRFTETLYIPPGVSIEIPTSNFFTRECKQGLFYDPVDKNTAAISLMVYRKQPDGSYKLNKDVDYYPTGLDIDNGDAITCARKIDINNLNLITAPGVKVGVKWIGGAGCTTKGLSIGENTGSDITTARLPRVGLLQSASWGSIHENLRILYKTQGAVFIDSNGGAAVNNAYISRLGNTNGELEQAVYKPAGFTEVGDVAVTQFAGSEVKFNSPIIEQASFDFVHAGRDTDSYGLFMVDKPHIESSGGKKKHSFYLINTSSNVTLSGVGLSGQDPDLDSMYFLKNCPETARNVVRGQMPISGVKLVRGTGNYPTLVLDCTNMGSQFQFGEVGDIFYIKDVVGVKADTLYIDPVNGNNYNWGTNGTKPIRELTNIAKICQLFRCKSVYLNAGESVITSNTELPMVVFEGPGSLKANSGSSFLIKAGGTLSLIGLSGISTDGGHMFRVSTVEKVNIHTNCSVNAGAAYVVLSEVQGNIEYRQLFYSVNCSKYIGATAGQTIAGIMVKTATRPTGIDAAPVDGNVSLTYKIIES
notes: Tailspike protein 1 (TSP1), open reading frame 210 (tsp1) of the phage CBA120 genome, codon-optimised synthetic gene; the encoded 770 amino acid residues followed by six histidines; A construct with an N-terminal 6X-His tag was dropped; the C-terminal tag construct was used for all experiments; also called CBA120 TSP1; wild-type TSP1; source: E. coli BL21 (pBAD24, arabinose induction), purified …
[3]
  stoichiometry N: 3

B2: Selenomethionine derivative of TSP1 (ORF210) from bacteriophage CBA120, with C-terminal 6X-His tag (natural protein, bacteriophage CBA120 (vB_EcoM_CBA120), UniProt G3M189 1-770, looked up)
chain: MNEMFSQGGKGSTGILTNKQAVARHFGVKQSEVVYFSVGVDLGGYKVIYDKETQRAYSLPVGIASGTTAVSLSTAAVLVHSAGSVDLGSLAVSREEYVTLPGSFDSGSTLNVKNELLTYTDGKYRWDGILPKTVAPGSTPASTGGVGLGAWISVGDASLRTQLANGDGSLIGIHPQGTLNNVLTVRTPEQYNAVGDGIADDTSKLKEMLSDINNVPETLPDAAAVNSYMEQVAVKIDLTKLYRFTETLYIPPGVSIEIPTSNFFTRECKQGLFYDPVDKNTAAISLMVYRKQPDGSYKLNKDVDYYPTGLDIDNGDAITCARKIDINNLNLITAPGVKVGVKWIGGAGCTTKGLSIGENTGSDITTARLPRVGLLQSASWGSIHENLRILYKTQGAVFIDSNGGAAVNNAYISRLGNTNGELEQAVYKPAGFTEVGDVAVTQFAGSEVKFNSPIIEQASFDFVHAGRDTDSYGLFMVDKPHIESSGGKKKHSFYLINTSSNVTLSGVGLSGQDPDLDSMYFLKNCPETARNVVRGQMPISGVKLVRGTGNYPTLVLDCTNMGSQFQFGEVGDIFYIKDVVGVKADTLYIDPVNGNNYNWGTNGTKPIRELTNIAKICQLFRCKSVYLNAGESVITSNTELPMVVFEGPGSLKANSGSSFLIKAGGTLSLIGLSGISTDGGHMFRVSTVEKVNIHTNCSVNAGAAYVVLSEVQGNIEYRQLFYSVNCSKYIGATAGQTIAGIMVKTATRPTGIDAAPVDGNVSLTYKIIES
modifications: selenomethionine in place of methionine
notes: Tailspike protein 1 (TSP1), open reading frame 210 (tsp1) of the phage CBA120 genome, same plasmid pBAD24::tsp1 as m1; the encoded 770 amino acid residues followed by six histidines; also called Se-Met TSP1; SeMet TSP1; source: E. coli B834 (methionine auxotroph, SelenoMet media with 40 mg/L selenomethionine), purified as the wild type; not shown: His6, C-terminal, kept
[4]
  stoichiometry N: 3
